Laboratory results published in patent publication US8420606B2, “Method of utilizing physiological activity of rare saccharide and composition containing rare saccharide” (priority 2002, dated 2013).
“Also recorded” adds a separate entry of the source.

Tests used:
Daudi = assay: blood-system cancer cell strain proliferation, Coulter Counter, Daudi; format: cell-based; conditions: for Daudi-cell proliferation inhibitory effect: 0.05-50 mM, 7 days, D-glucose control; for Daudi cell number relative to glucose: seventh day, glucose = 100%
Experimental: (2) Method: Total 6 kinds of cell strains, i.e., Myeloid (HL-60, THP-1, KG-1), T-cell (MT-2), and B-Cell (Daudi, KS-1), and 3 kinds of rare saccharides (i.e., D-psicose, D-altrose, and D-allose), were employed. The culture medium and the cells were prepared to be 1 mL in total and 1×10^5 in number, respectively. Then, the cell number at each of fourth day and seventh day was counted by using a Coulter Counter. Each rare saccharide was added at concentrations of 0.05, 0.5, 5 and 50 mM, while D-glucose was used as a control.
Culture Medium: FBS 10% added RPMI1460
Cultivation Conditions: 37° C., 5% CO2
Cultivation Vessel: FALCON, MULTIWELL, 12 wells
Number of Cultivation Days: 7 days
Saccharides Concentration: 0.05, 0.5, 5, 50 mM

hippocampus neurons = assay: temporary brain ischemia, survival of hippocampus neurons; format: in vivo, gerbil; conditions: for necrosis of hippocampus neurons caused by ischemia: 200 mg/kg before ischemia, 5 minutes ischemia, after 1 week
Experimental: (2) Method: The bilateral common carotid artery of a gerbil was shut off for 5 minutes. After 1 week, the gerbil was sacrificed and a sample was prepared in accordance with the ordinary method, followed by hematoxyline eosin dyeing. The survival rate was measured by counting the number of hippocampus neurons while looking at them under a microscope. Experiments were performed on a normal control group, a group subjected to only ischemia, and a group administrated with 200 mg/kg of D-allose or D-psicose before ischemia. It is known that glutamates released in large amount from the neurons with ischemia are toxic to the neurons. Such a point was examined by fixing the gerbil to a brain position fixing device, perfusing a solution, in which oxidase glutamate is dissolved, to the hippocampus through a probe for micro-dialysis, and measuring the glutamate concentration outside the hippocampus neurons. Also, the inventors have clarified the relationship between the metabolism of glucose and the action mechanism of D-allose with ischemia by pre-administrating D-allose and 2-deoxiglucose.

[1] = system: Pancreas β-cell strains INS-1; assay: insulin secretion from pancreas β-cell strain, ELISA; format: cell-based, rat; conditions: for concentration at which insulin secretion stimulus reached a plateau / insulin secretion into culture medium: saccharide alone; for insulin secretion into culture medium: 2.8-16.7 mM
Experimental: Pancreas β-cell strains INS-1 derived from insulinoma were cultured under the culture medium condition of (DMEM +10% FBS) in accordance with the ordinary method. The INS-1 cells at density of about 70% were pipitted into a 96-well culture dish, and the following experiments were performed. D-psicose was used as the ketohexose belonging to the rare saccharides.
After cultivation for 24 hours with the glucose concentration in the culture medium set to 2.8 mM, 5.6 mM, 11.2 mM and 16.7 mM, the insulin concentration in the culture medium was measured by using an ELISA (insulin kit).
By using the ELISA method, the insulin concentration in the culture medium was measured while the D-psicose concentration in the culture medium was changed to 0 mM, 2.8 mM, 5.6 mM, 11.2 mM and 16.7 mM.

[2] = intravenous grape sugar load test (IVGTT); format: in vivo, rat; conditions: 0.5 g/kg intravenous, rats fasted 16 hours
Experimental: (2) Method: 1) Intravenous grape sugar load test (IVGTT) . . . IVGTT was conducted on 8-week old male SD rats by inserting a catheter through the jugular vein. A rare saccharide was administrated to 3 rats, and glucose was administrated to other 3 rats.
Perform intravenous injection (IV) at 0.5 g/kg (i.e., 0.5 g/1000 g=500 mg/1000 g=0.5 mg/g).
Prepare rare-saccharide and glucose solutions in concentration of 0.5 g/mL (i.e., 0.5 g/1000 ul=500 mg/1000 ul=0.5 mg/ul). Prepare 2 mL of solution for each concentration.
Intravenously inject 200 ul of the solution for a 200 g rat.
Intravenously inject 250 ul of the solution for a 250 g rat.
Inject 300 ul of physiological saline after the intravenous injection.
Collect 150 ul of blood sample.
Abstain each rat from food for 16 hours as pretreatment. Allow to drink water.
Collect blood at 9 points in time, i.e., 0, 5, 10, 15, 20, 25, 30, 45 and 60 minutes.

[3] = system: Hepatic cancer cells (HepG2); assay: proliferation of cultured cells, MTT method, HepG2; format: cell-based, human; conditions: saccharide 50 mM, 4 to 5 days
Experimental: Various kinds of rare saccharides were added at a concentration of 50 mM to culture media under the following conditions, and an influence of each rare saccharide upon the progress of proliferation of cancer cell strains was examined.
(1) Target cells to which the rare saccharides were added: Hepatic cancer cells (HepG2), uterine cancer cells (He1a), ovary cancer cells (OVCAR3), and skin keratinocyte (HaCaT) were selected as target cells to which the rare saccharides were added.
(2) Rare saccharides added: In addition to D-allose, glucose and D-altros as rare saccharides belonging to ketose were added, as other comparative saccharides, to the addition target cells. Also, D-fructose was employed as a control.
(3) Experiment method: A number 3,000-5,000 of addition target cells per type were inoculated into a multi-well plastic dish (hereinafter referred to as a “well”) having 96 wells, and were cultured for 4 to 5 days in a culture medium supplemented with 5 to 10% of Fetal Bovine Serum (FBS) depending on the cell types. D-Allose, D-glucose and D-altros were each added at concentration of 50 mM to the addition target cells per type. Similarly, D-fructose as a control was added at a concentration of 50 mM. To examine the influence upon the cell proliferation, the cell number was measured in units of 24 hours by using the MTT method described below.
(1) Preparation of reagents: A predetermined amount of MTT (tetrazolium salt) was dissolved in PBS(−) sterilized in an autoclave to obtain an MTT solution through filtering and sterilization. An acidic solution was prepared by adding 50 mL of N,N-dimethylformaldehyde and water to a predetermined amount of (20 g) of SDS, thereby obtaining a 100 mL of solution. […]
(2) Test method: The cells were treated with TEP to prepare a cell suspension liquid. […] The absorbance of the liquid was measured at a wavelength of 570 to 600 nm by using a spectrophotometer. After dissolving the colored substance (formazan) in the acid solution, the absorbance can be measured directly by a plate reader.

Row | Structure (SMILES) | Daudi-cell proliferation inhibitory effect (Daudi) | necrosis of hippocampus neurons caused by ischemia (hippocampus neurons) | insulin secretion with D-psicose added to glucose ([1]; glucose fixed at 11.2 mM, psicose 2.8-16.7 mM, 24 hours) | concentration at which insulin secretion stimulus reached a plateau [1] | insulin secretion into culture medium ([1]; 24 hours) | blood sugar value in IVGTT [2] | insulin concentration in the blood during IVGTT [2] | proliferation of HepG2 cells (cell number over time) [3] | Daudi cell number relative to glucose (Daudi; 0.05 mM) | Daudi cell number relative to glucose (Daudi; 0.5 mM) | Daudi cell number relative to glucose (Daudi; 5 mM) | Daudi-cell proliferation inhibitory effect (Daudi; listed as allose) | Daudi cell number relative to glucose (Daudi; 50 mM) | hippocampus neurons alive after ischemia (hippocampus neurons; ischemia for 5 minutes, rat brains as printed, solution containing D-allose perfused before the ischemia, 80% died without)
1 | O=C(CO)[C@H](O)[C@H](O)[C@H](O)CO [D-psicose] | showed no effect | not found; also recorded: not confirmed | further stimulated in an additive way; also recorded: further promoted | 11.2 mM | insulin was secreted depending on the D-psicose concentration; also recorded: a reaction of secreting insulin depending on the concentration of D-psicose was found | no rise of the blood sugar value was found | influences upon the insulin secretion were not found | – | – | – | – | – | – | –
2 | O=C[C@H](O)[C@@H](O)[C@H](O)[C@H](O)CO [D-glucose, reference compound] | – | – | – | 11.2 mM | the insulin secretion from the cells was stimulated | increased | a rise of the insulin concentration was found | hardly found | – | – | – | – | – | –
3 | O=C[C@H](O)[C@H](O)[C@H](O)[C@H](O)CO [D-allose] | having the inhibitory effect | significantly inhibited necrosis | – | – | – | – | – | strongly inhibited proliferation; also recorded: has a proliferation inhibitory effect | 85.9% | 80.6% | 62.2% | showed an inhibitory effect | 3.9% | 70%
